According to patent publication US20260250269A1, “APOPTOSIS INHIBITOR SALTS FOR CANCER” (priority 2022, published 2026):

How the values were obtained:
Caspase-3 = Caspase-3 protein expression in xenografted SU-DHL-10 tumor (Western blot); format: in vivo, mouse; conditions: Form A, single i.m. injection 11.2 mg/kg, 24 hours post dosing, versus vehicle
Protocol: The pamoate was administrated via single intramuscular (i.m.) injection to SU-DHL-10 xenografted mice to examine the effect of the pamoate on c-Myc expression level in tumor at the 24-hour time point post injection.
The pamoate was mixed with appropriate volume of vehicle solution (0.5% carboxymethylcellulose sodium (CMC-Na, viscosity 400-800 cps, CAS No. 9004-32-4, Sigma-Aldrich, USA) and 0.2% Tween-80 in 10 mM pH 7.4 phosphate buffer saline (PBS)) to get a uniform suspension after 15 min sonication, with final concentration of 5.6 mg/mL. The dose volume was determined by the mice′ body weight collected on the morning of dosing day, calculated by the formula: dose volume (2 mL/kg)×body weight.
Human diffuse large B cell lymphoma cell line SU-DHL-10 was obtained from Cobioer Biotechnology Co., Ltd (China). […]
The tumor was excised with scissors, resuspended in cold cell lysis buffer containing 20 mM Tris (pH7.5), 150 mM NaCl, 1% Triton X-100, 2 mM AEBSF, […] Aprotinin, 130 μM Bestatin, 14 μM E64, 10 μM Leupeptin, 5 mM sodium fluoride, 1 mM sodium pyrophosphate, 1 mM β-glycerophosphate and 1 mM sodium orthovanadate, and then homogenized with handheld homogenizer (Beyotime, China). […] Protein contents were determined using Micro BCA™ Protein Assay Kit (23235, Thermo Scientific, USA). […] Visualization was carried out using the Enhanced Chemi-luminescence Kit (Beyotime, China).

[1] = Body weight in SU-DHL-10 xenografted mice; conditions: for Mean Body Weight ± SEM: Group 4: Form A, 11.2 mg/kg i.m. Day 0, 7, 14
[2] = pH of about 7.4
[3] = test system: SU-DHL-10 human diffuse large B cell lymphoma xenograft; experiment: Anti-tumor activity against SU-DHL-10 xenograft; format: in vivo, BALB/c nude mice
Protocol: For the monobromide continuous i.v. infusion group, the monobromide was dissolved with physiological saline to prepare 12.12 mg/mL clear solution.
For the monobromide i.p. injection group, the monobromide was dissolved with physiological saline to prepare 0.41 mg/mL clear solution. The dose volume was determined by the mice′ body weight collected on the morning of dosing day, calculated by the formula: dose volume (10 mL/kg)×body weight.
For the pamoate i.m. injection group, the pamoate salt was mixed with appropriate volume of vehicle solution (0.5% CMC-Na (viscosity 400-800 cps, CAS No. 9004-32-4), 0.2% Tween-80 in 10 mM pH 7.4 PBS saline) to get a uniform suspension after 15 min sonication, with final concentration of 5.6 mg/mL, similar to the procedure described in Example 14. The dose volume was determined by the mice′ body weight collected on the morning of dosing day, calculated by the formula: dose volume (2 mL/kg)×body weight.
Human diffuse large B cell lymphoma cell line SU-DHL-10 was obtained from Cobioer Biotechnology Co., Ltd (China). The cells were cultured at 37° C. with 5% CO2 in RPMI-1640 (Hyclone, USA) supplemented with 10% heat inactivated fetal bovine serum (Gibco, USA) and 1% GlutaMAX (Gibco, USA). The cells were collected, suspended in PBS at 2×10^8 cells/mL, and then mixed with the equivalent volume of Matrigel® Basement Membrane Matrix (Corning, USA).
Six-week-old female BALB/c-nude mice were purchased from SPF Biotechnology Co., Ltd. (Beijing, China). They were maintained on a standard diet and water throughout the experiments under specific pathogen-free conditions. The cells were cultured in vitro and 0.1×10^8 cells/0.1 mL/mouse were grafted subcutaneously into the flank of NOD-SCID (NVSG) mice (Beijing Viewsolid Biotech Co. LTD), 6-week-old. When the tumor reached about 1 cm in diameter, tumor-bearing mice were sacrificed and tumors were removed and sliced into small fragments (approximately 3×3×3 mm^3/fragment) and re-inoculated into BALB/c nude mice. The mice with a tumor volume (length×width^2×0.5) of 99.28 to 247.10 mm^3 were divided into four groups randomly, using Study Director Software (Studylog Systems, Inc, Version 3.1.399.22, USA) to minimize intragroup and intergroup tumor volume variation.
The first day of administration was designated day 0, and observation continued until day 35. Each group was treated as follows (Table 15).
The vehicle control group received i.m. injection of vehicle solution on day 0, 7 and 14 (Group 1). For 21-day continuous i.v. infusion, an osmotic pump containing the monobromide was implanted in the dorsum of each animal while under anesthesia on day 0, with daily dose of […], approximately 1.6 mg/kg/day (Group 2). The monobromide i.p. injection group was administrated referring to FIVE-DAY-ON, TWO-DAY-OFF procedure on day 0-4, 7-11 and 14-18 (Group 3) per Minoda et. al, Antitumor effect of YM155, a novel small-molecule survivin suppressant, via mitochondrial apoptosis in human MFH/UPS, International Journal of Oncology, 2015, 47:891-899. For the pamoate i.m. injection group, drug suspension was administrated once per week at 11.2 mg/kg, approximately 7 times daily dosage of the monobromide i.v. infusion group, on day 0, 7 and 14 (Group 4).

[4] = Photostability test (ICH Option 1, ID65 light)
Protocol: Purity via HPLC, XRPD, and appearance inspection were performed before and after light exposure to determine photostability of the two compounds.
Light source—ICH Option 1 light source standard was adopted. ID65 light, equivalent indoor indirect daylight standard, with 250 W/m^2 light source intensity was used.
Total light exposure and light exposure time−total light exposure was set to 1.44 million lux light quantity (1000 lux×24 h×60 d=1,440,000 lux light quantity). Light stability testing box with ID65 light source of 250 W/m^2 intensity was adopted. According to ICH Option 1 standard, 21.8 hours light exposure could reach 1.2 million lux light quantity. Therefore, 26.2 hours light exposure is needed to reach 1.44 million lux quantity.
Testing—Accurately weight 0.5 g of the monobromide and the pamoate, place in petri dishes (covered with clear wrap film) and spread into a layer no more than 3 mm thickness, separately. Samples were put into light stability testing box, and received total amount of light exposure not less than 1.44 million lux light quantity (ID65 light, 250 W/m^2, 26.2 hours, 25° C., 60% relative humidity). After light exposure, samples were removed for characterization, including appearance inspection, XRPD and purity via HPLC.

[5] = Group 4: Form A, 11.2 mg/kg i.m. Day 0, 7, 14, Day 21
[6] = Group 4: Form A, 11.2 mg/kg i.m. Day 0, 7, 14, Day 35
[7] = ID65 light, 250 W/m^2, 25° C./60% RH (ICH Option 1), 26.2 hours
[8] = Initial, irradiation time 0 hours

COCCn1c2c([n+](Cc3cnccn3)c1C)C(=O)c1ccccc1C2=O.COCCn1c2c([n+](Cc3cnccn3)c1C)C(=O)c1ccccc1C2=O.O=C([O-])c1cc2ccccc2c(Cc2c(O)c(C(=O)[O-])cc3ccccc23)c1O [pamoate salt]
Cleaved Caspase-3 expression in tumors (Caspase-3): increased | Full length Caspase-3 expression in tumors (Caspase-3): decreased | Mean Body Weight ± SEM ([1]; Day 21): 21.43 ± 0.35 ^N.S. g | Mean Body Weight ± SEM ([1]; Day 35): 22.65 ± 0.30 ^N.S. g | Body weight decrease (in words) ([1]; each group (Groups 2-4), until day 35): no statistically significant decrease in body weight | Aqueous solubility [2]: less than 0.02 mg/mL | Mean Tumor Volume ± SEM ([3]; Group 4: Form A, 11.2 mg/kg i.m. Day 0, 7, 14, Day 0): 151.26 ± 23.65 mm^3 | Mean Tumor Volume ± SEM ([3]; Group 4: Form A, 11.2 mg/kg i.m. Day 0, 7, 14, Day 7): 0.00 ± 0.00 mm^3 | Antitumor Activity, percent inhibition of tumor growth (% inh) [3, 5]: 118.27% | Antitumor Activity, percent regression of the tumor (% reg) [3, 5]: 100% | Mean Tumor Volume ± SEM [3, 5]: 0.00 ± 0.00 mm^3 | Mean Tumor Volume ± SEM ([3]; Group 4: Form A, 11.2 mg/kg i.m. Day 0, 7, 14, Day 28): 23.61 ± 23.61 **^, N.S., $ mm^3 | Antitumor Activity, percent inhibition of tumor growth (% inh) [3, 6]: 98.22% | Antitumor Activity, percent regression of the tumor (% reg) [3, 6]: −19.21% | Mean Tumor Volume ± SEM [3, 6]: 180.32 ± 101.25 **^, N.S., $ mm^3 | Number of CRs (complete response) [3, 6]: 3/6 | Safety and efficacy (in words) ([3]; SU-DHL-10 xenograft tumor model): good safety and efficacy | Photostability (in words) ([4]; ICH Option 1 irradiation, 26.2 hours): excellent photostability | Description [4, 7]: Purple | Purity % (HPLC) [4, 7]: 99.38% | XRPD [4, 7]: Consistent | Description [4, 8]: Purple | Purity % (HPLC) [4, 8]: 99.29% | Change in the appearance, XRPD and HPLC purity ([4]; after ICH Option 1 irradiation, 26.2 hours): no significant change
